From patent publication EP4772500A1, “NOVEL ISOXAZOLE COMPOUND AS TM4SF5-SPECIFIC INHIBITOR AND USE THEREOF” (Seoul National University R&DB Foundation, priority 2023, dated 2025)

How the values were obtained:
[1] = tested on: SNU449T7 cells; test: Liver-orthotopic xenograft model of TM4SF5-expressing cell line; type: in vivo, BALB/c-Nude mice
Experimental: The next day, the cells were detached by treating with a T/E (Trypsin/EDTA) solution and centrifuged at 150x g for 3 minutes to obtain a pellet. Thereafter, the supernatant was removed, leaving only the pellet. After mixing with matrigel matrix (CORNING) such that the final concentration of EGF was 50 ng/µl, the cell pellet was prepared by resuspension in the mixture of EGF and matrigel. Then, 5x10^5 cells/20 µl were directly injected once into the liver of 6-week-old male BALB/c-Nude mice. At this time, the animals were anesthetized by inhalation with […] isoflurane and injected. From one week after the cell injection, drug ST-5-002 was intraperitoneally injected at 5 mg/kg twice a week. After injecting the drug for a total of 6 times over 3 weeks, the animals were sacrificed at the 4th week of cell injection, and liver tissues were obtained and analyzed.
(a-d) A liver-orthotopic xenograft model was established by directly injecting 5x10^5 SNU449T7 cells into the livers of 6-week-old male BALB/c-Nude mice (n=9), which are deficient in T and B cells but still capable of activating NK cell functions. Starting one week after the cell injection, the drug ST-5-002 was intraperitoneally injected at 5 mg/kg twice a week (a). After a total of 6 injections over 3 weeks, the animals were sacrificed at the 4th week of cell injection, and liver tissues were obtained and images of the livers were taken (b). Body weight was measured every week during the drug injections. Meanwhile, although cancer formation occurred in several places in the liver tissue, the cancer masses were […], and since it was practically difficult to measure the size or volume of small cancer masses due to time constraints for tissue specimen processing, the volume of the largest cancer mass was measured for each liver tissue. The tumor volumes calculated from n=7 liver tissues, excluding the maximum and minimum values, are shown (c). (d) For a portion of the liver tissues, the expression level, distribution, and localization of each factor, as well as the degree of damage to the liver cancer tissue, were confirmed through immunohistochemistry or H&E staining for the given protein factors.
(a-b) As in FIG. 20, a liver-orthotopic xenograft model was established by directly injecting 5x10^5 SNU449T7 cells into the livers of 6-week-old male BALB/c-Nude mice (n=9), which are deficient in T and B cells but still capable of activating NK cell functions. Starting one week after the cell injection, the drug ST-5-002 was intraperitoneally injected at 5 mg/kg twice a week. (b-d) After the end of the experiment, for a portion of the obtained liver tissues, the expression level, distribution, and localization of SLAMF7, SLAMF6, NKG2D, PD-L1, and PD-1 factors, as well as the degree of liver cancer tissue, were confirmed through immunohistochemistry.

[2] = tested on: SNU449-TM4SF5 cells; test: Cell migration tracking, TM4SF5-expressing cells; type: cell-based, human; settings: SNU449-TM4SF5, 2.5, 5.0, or 10.0 µM, 17 hours (FIG. 7)
Experimental: SNU449-TM4SF5 cells, which were made to express TM4SF5 using a lentivirus in human hepatocellular carcinoma cells SNU449, and SNU449-EV cells, into which a control vector (empty vector, EV) was injected so that TM4SF5 is not expressed, were seeded to a density of 40% in 8-chamber plates (Thermo) coated with 10 µg/ml collagen type 1 (Advanced Biomatrix). Three hours after seeding in a cell culture environment containing 10% FBS (GenDEPOT), DMSO and drugs were treated in the culture medium at the indicated concentrations. After treating with the drugs, the positions of the same moving cells were repeatedly photographed using a microscope every 20 minutes for 17 hours. The cells were photographed using an IX81-ZDC microscope (Olympus) equipped with a UPLSAPO 10X2, NA0.4 Super Apochromatic objective lens (Olympus). While photographing the cells, a general cell culture environment was created by constantly injecting 5% CO2 at a rate of 40-60 mL/min at 37°C using a controller (Live Cell Instrument). The migration distance and path of the cells were calculated using the "Track Object" application of MetaMorph software (Molecular Devices LLC). […]

[3] = mouse xenograft experiment, liver tissue extracts, Western blotting (FIG. 13e)

Structure (SMILES) | inhibitory effect on liver cancer formation ([1]; 5 mg/kg IP twice a week, 6 times, images (FIG. 20b)) | distribution of cells highly expressing PD-L1 ([1]; immunohistochemistry (FIG. 22e)) | infiltration of PD-1-expressing cells ([1]; immunohistochemistry (FIG. 22d)) | expressions of Ki67, AFP, F4/80, CCL2 and CCL20, and laminin γ2 ([1]; immunohistochemistry of liver tissue (FIG. 20d)) | distribution of cells highly expressing SLAMF7 ([1]; immunohistochemistry, interface of small tumors (FIG. 22b)) | degree of staining for SLAMF6 and NKG2D ([1]; immunohistochemistry, small cancerous areas (FIG. 22c)) | tumor volume ([1]; largest cancer mass per liver, 28th day, vs vehicle (FIG. 20c)) | SLAMF6 expression [1, 3] | TIGIT expression level [1, 3] | migration of the cells [2]
Cc1ccc(C(=O)Nc2ccc(-c3cc(-c4ccc(O)cc4)no3)cc2)cc1 [ST-5-002, N-(4-(3-(4-hydroxyphenyl)isoxazole-5-yl)phenyl)-4-methylbenzamide] | distinct | scattered and distributed at a low level inside the tumor | scattered and distributed without restriction | significantly lower | infiltrated and were distributed or localized inside the tumor | further increased inside the tumor area | significantly reduced | increased | lowered | 
COc1ccc(-c2cc(-c3ccc(NC(C)=O)cc3)no2)cc1 [ST-2-001, N-(4-(5-(4-methoxyphenyl)isoxazole-3-yl)phenyl)acetamide] |  |  |  |  |  |  |  |  |  | decreased according to the treatment with ST-2-001 in a concentration-dependent manner
